Counter-ions that a name gives are not always drawn. Like-named read-outs stand apart in the source and are kept apart here.
Tests used:
[1] = system: LTB4 production in human whole blood (LTA4 hydrolase); experiment: LTB4 production by calcium ionophore stimulated human blood; format: cell-based; details: read-out: Inhibition of Calcium Ionophore-Induced LTB4 Production in Human Blood IC50 HWB
Method: LTB4 and Thromboxane Production by Calcium Ionophore Stimulated Human Blood for LTA4 Hydrolase Inhibitor Activity
One or more concentrations of the leukotriene A4 hydrolase inhibitor compounds being tested were prepared (diluted in DMSO) and 2 μl added and gently mixed with the diluted whole blood. After incubating for 15 minutes at 37° C. in a humidified incubator, calcium ionophore A23187 (Sigma Chemical Co., St. Louis, Mo.) was added to a final concentration of 20 mcg/ml and the incubation continued under the same conditions for an additional 10 minutes to allow LTB4 formation. The reaction was terminated by centrifugation (833 g, 10 minutes at 4° C.) and supernatant were analyzed for LTB4 and thromboxane by commercially available enzyme-linked immunoassays (Caymen Chemical Co., Ann Arbor, Mich.) according to the manufacturer's instructions. The IC50 of each test compound was determined from the amount of inhibition of LTB4 production as compared to an essentially identical assay in which no inhibitor compound was present.

[2] = biological target: T1, recombinant human LTA4 hydrolase (rhLTA4H) (Homo sapiens, UniProt P09960); experiment: Recombinant human LTA4 hydrolase assay for LTA4 hydrolase inhibitor activity
T1 sequence (P09960 1-611): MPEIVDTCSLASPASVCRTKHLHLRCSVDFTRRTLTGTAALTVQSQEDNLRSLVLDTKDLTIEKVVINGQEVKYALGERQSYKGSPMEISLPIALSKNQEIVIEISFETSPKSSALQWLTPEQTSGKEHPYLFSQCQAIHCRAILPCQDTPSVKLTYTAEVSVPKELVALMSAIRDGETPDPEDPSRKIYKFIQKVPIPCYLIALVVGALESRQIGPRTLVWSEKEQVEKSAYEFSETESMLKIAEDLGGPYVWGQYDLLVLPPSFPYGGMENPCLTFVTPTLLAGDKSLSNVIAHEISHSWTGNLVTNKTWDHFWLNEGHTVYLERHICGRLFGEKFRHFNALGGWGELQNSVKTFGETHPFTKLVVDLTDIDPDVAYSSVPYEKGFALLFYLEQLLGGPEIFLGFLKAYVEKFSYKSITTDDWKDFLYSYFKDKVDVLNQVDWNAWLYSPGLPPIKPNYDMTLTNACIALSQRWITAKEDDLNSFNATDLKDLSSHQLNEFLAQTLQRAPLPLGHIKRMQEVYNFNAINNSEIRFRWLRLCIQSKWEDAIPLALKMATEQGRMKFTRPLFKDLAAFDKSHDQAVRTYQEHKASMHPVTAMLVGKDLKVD
Method: One or more predetermined amounts of a compound of the invention were incubated in assay buffer (0.1 M potassium phosphate, 5 mg/ml fatty acid free BSA, 10% DMSO, pH 7.4) for 10 minutes at room temperature with 250 ng of recombinant hLTA4H to allow binding, if any, between the enzyme and inhibitor. The stock enzyme solution was 1 mg/ml LTA4 hydrolase, 50 mM Tris, pH 8.0, 150 mM NaCl, 2.5 mM beta-mercaptoethanol, 50% glycerol. […] Each reaction was carried out at room temperature for 10 minutes. The reaction was stopped by diluting 25 μl of the reaction mixture with 500 μl of the assay buffer without DMSO. LTB4 was quantified in the diluted sample by a commercially available enzyme-linked immunoassay [Caymen Chemical Co., Ann Arbor, Mich.] using the method recommended in the manufacturer's instructions and compared to the amount of LTB4 produced in a negative control (i.e., essentially identical conditions except without addition of an inhibitor compound). The IC50 was routinely calculated from the data produced.

[3] = system: LTB4 production in mouse blood (LTA4 hydrolase); experiment: Ex vivo LTB4 production by calcium ionophore stimulated mouse blood after oral dosing; format: in vivo
Method: Ex Vivo LTB4 and Thromboxane Production by Calcium Ionophore Stimulated Mouse Blood for LTA4 Hydrolase Inhibitor Activity
Leukotriene A4 hydrolase inhibitor compounds of the present invention were diluted to a predetermined concentration in phosphate buffered saline containing 2% DMSO and 1% Tween 80. The compounds were administered by oral gavage to adult male outbred mice weighing approximately 20-30 gm at a dose of 10 mg/kg body weight. (Compounds given at a dose of 50 mg/kg body weight are designtated in following Table by the symbol, *.) Sixty (60) minutes after administration of an LTA4 inhibitor compound of the invention, blood was collected (into heparin-containing tubes) from the retroorbital sinus. […] The mixture was incubated for 10 minutes at 37° C. in a humidified incubator. The reaction was terminated by centrifugation (833 g, 10 minutes at 4° C.). Supernatants were analyzed for LTB4 and thromboxane by commercially available enzyme-linked immunoassays (Caymen Chemical Co., Ann Arbor, Mich.] in accordance with the manufacturer's instructions. The percent inhibition was determined by comparison to animals treated identically except that the solution admininstered by oral gavage was devoid of inhibitor compound.

[4] = Recombinant Human LTA4 Hydrolase Assay IC50 LTA4H, recombinant hLTA4H
[5] = Mus musculus, po, 1 h; read-out: Murine Ex Vivo LTB4 Inhibition % I LTB4
[6] = Homo sapiens, human whole blood, A23187
[7] = mouse, oral gavage, 1 hour after administration of 10 mg/kg; read-out: Murine Ex Vivo LTB4 Inhibition % I LTB4
[8] = Mus musculus, po, 1 h, read-out: Murine Ex Vivo LTB4 Inhibition % I LTB4

Structure (SMILES) | IC50 [2, 4] | inhibition in vivo at 10 mg/kg [3, 7] | other results
c1ccc(Cc2ccc3c(c2)CC(Cn2cnc4ccncc42)O3)cc1 (stereo not shown) [358 A] | 1550 nM |  | IC50 ([1]; human whole blood, A23187): 152 nM
c1ccc(Cc2ccc(OCCN3CCCC3)cc2)cc1 [Example 45, 1-[2-(4-phenylmethyl)phenoxyethyl]pyrrolidine] |  |  | IC50 ([1]; human whole blood, A23187): 116 nM; inhibition in vivo at 10 mg/kg [3, 5]: 35%
C(=C\c1ccc(OCCN2CCCC2)cc1)/c1ccccc1 [Example 46, 1-[2-[4-(2-phenylethenyl)phenoxy]ethyl]pyrrolidine] |  | 13% | IC50 [1, 6]: 1500 nM
c1ccc(Cc2cnc(OCCN3CCCC3)s2)cc1 [Example 76] |  |  | IC50 [1, 6]: 3500 nM
Clc1cc(Cc2ccccc2)ccc1OCCN1CCCC1 [Example 113] |  |  | IC50 [1, 6]: 2010 nM
Fc1cc(Cc2ccccc2)ccc1OCCN1CCCC1 [Example 115] |  |  | IC50 [1, 6]: 190 nM
Fc1cc(OCCN2CCCC2)ccc1Cc1ccccc1 [Example 116] |  | 18% | IC50 [1, 6]: 1090 nM
COc1cccc(Cc2ccc(OCCN3CCCC3)cc2)c1 [Example 127] |  |  | IC50 [1, 6]: 2480 nM
COc1ccc(Cc2ccc(OCCN3CCCC3)cc2)cc1 [Example 128] |  | 74% | IC50 [1, 6]: 890 nM
Clc1ccc(Cc2ccc(OCCN3CCCC3)cc2)cc1 [Example 140] |  | 15% | IC50 [1, 6]: 1010 nM
COC(=O)[C@@H]1CCCN1CCOc1ccc(Cc2ccccc2)cc1 [Example 225, Methyl 1-[2-[4-(Phenylmethyl)phenoxy]ethyl]-2S-pyrrolidine-2-carboxylate, monohydrochloride, hydrate] |  |  | IC50 ([1]; Homo sapiens): 1860 nM
CC(=O)NC1CCN(CCOc2ccc(Cc3ccccc3)cc2)C1 (stereo not shown) [Example 227] |  |  | IC50 ([1]; human whole blood, A23187): 420 nM; Murine Ex Vivo LTB4 Inhibition % I LTB4 ([3]; mouse, oral gavage, 1 hour after administration of 10 mg/kg): 23%
COC(=O)C1CCCN1CCOc1ccc(Cc2ccccc2)cc1 (stereo not shown) [Example 237] | 450 nM |  | IC50 ([1]; Homo sapiens): 1860 nM
CC(=O)NC1CCN(CCOc2ccc(Cc3ccccc3)cc2)CC1 [Example 238] |  | 49% | IC50 [1, 6]: 180 nM
CC(=O)NC1CCN(CCOc2ccc(Cc3ccccc3)cc2)C1 (stereo not shown) [Example 256] |  | 23% | IC50 [1, 6]: 420 nM
CCOC(=O)CNCCCOc1ccc(Cc2ccccc2)cc1 [Example 264] |  |  | IC50 [1, 6]: 1100 nM; inhibition in vivo at 50 mg/kg ([3]; mouse, oral gavage, 1 hour after administration of 50 mg/kg (*); read-out: Murine Ex Vivo LTB4 Inhibition % I LTB4): 87%
CCOC(=O)CC1CCN(CCOc2ccc(Oc3ccccc3)cc2)CC1 [Example 300] | 5000 nM |  | IC50 ([1]; human whole blood, A23187): 2510 nM
CCOC(=O)C1C2CN(CCOc3ccc(Cc4ccccc4)cc3)CC21 (stereo not shown) [Example 325] | 20000 nM |  | IC50 ([1]; human whole blood, A23187): 2400 nM
NC(=O)N1CCN(CC2Cc3cc(Cc4ccccc4)ccc3O2)CC1 (stereo not shown) [Example 337] | 360 nM | 82% | 
c1ccc(Cc2ccc(OCCn3cnc4ccccc43)cc2)cc1 [Example 339] | 2000 nM | 47% | 
[O-][n+]1cccc2c1ncn2CCOc1ccc(Cc2ccccc2)cc1 [Example 363] | 17 nM | 62% | 
[O-][n+]1ccc2c(c1)ncn2CCOc1ccc(Cc2ccccc2)cc1 [Example 365] |  |  | inhibition in vivo at 10 mg/kg [3, 8]: 72%; IC50 ([2]; Recombinant Human LTA4 Hydrolase Assay IC50 LTA4H): 82 nM
NC(=O)C1CCN(CCOc2ccc(Cc3ccccc3)s2)CC1 [Example 369] | 42000 nM | 100% | 
CCOC(=O)C1CCN(CCOc2ccc(Cc3ccccc3)s2)CC1 [Example 370] | 59000 nM |  | inhibition in vivo at 10 mg/kg [3, 5]: 96%
COC(=O)CCN(C)CCCOc1ccc(Cc2ccccc2)s1 [Example 375] | 900 nM |  | inhibition in vivo at 10 mg/kg [3, 5]: 67%
OCC1CCCN1CCOc1ccc(Cc2ccccc2)cc1 (stereo not shown) [Example 385] | 140 nM | 32% | 

Structure (SMILES) | IC50 [2, 4] | inhibition in vivo at 10 mg/kg [3, 7] | other results
OC1CCN(CCOc2ccc(Cc3ccccc3)cc2)C1 (stereo not shown) [Example 386] | 32 nM |  | inhibition in vivo at 10 mg/kg [3, 8]: 51%
c1ccc(Cc2ccc(OCCN3CCCCCC3)cc2)cc1 [Example 397] |  |  | IC50 ([1]; Homo sapiens): 120 nM; IC50 ([2]; read-out: Recombinant Human LTA4 Hydrolase Assay IC50 LTA4H): 37 nM
CC1CCC(C)N1CCOc1ccc(Cc2ccccc2)cc1 (stereo not shown) [Example 399] | 100 nM | 30% | 
CC(CN1CCCCCC1)Oc1ccc(Cc2ccccc2)cc1 (stereo not shown) [Example 404] | 1750 nM | 52% | 
CCC(CN1CCCC1)Oc1ccc(Cc2ccccc2)cc1 (stereo not shown) [Example 405] | 420 nM | 49% | 
c1ccc(Cc2ccc(OC(Cc3ccccc3)CN3CCCC3)cc2)cc1 (stereo not shown) [Example 406] | 500 nM | 46% | 
C#CC(CC(=O)OCC)NCCCOc1ccc(Cc2ccccc2)cc1 (stereo not shown) [Example 407] | 20000 nM | 0% | 
COC(=O)CCN(C)CCCOc1ccc(Cc2ccccc2)cc1 [Example 413] | 43 nM | 86% | 
CC(C)(O)CCNCCCOc1ccc(Cc2ccccc2)cc1 [Example 416] | 410 nM | 31% | 
NNC(=O)C1CCN(CCOc2ccc(Cc3ccccc3)cc2)CC1 [Example 419] | 47 nM | 90% | 
CNC(=O)CCNCCCOc1ccc(Cc2ccccc2)cc1 [Example 422] | 100 nM | 37% | 
O=C(CCNCCCOc1ccc(Cc2ccccc2)cc1)N1CCOCC1 [Example 424] | 370 nM |  | IC50 [1, 6]: 580 nM
NC(=O)C1(O)CCN(CCOc2ccc(Cc3ccccc3)cc2)CC1 [Example 427] | 350 nM | 68% | 
O=C(Nc1ccccc1)OC[C@@H]1CCCN1CCOc1ccc(Cc2ccccc2)cc1 [Example 428] | 500 nM | 2% | 
O=C(O)C1CCN(CCOc2ccc(Cc3ccccc3)cc2)CC1 [Example 429] | 250 nM |  | inhibition in vivo at 10 mg/kg [3, 5]: 80%
CC(CN(C)CCCOc1ccc(Cc2ccccc2)cc1)C(=O)O (stereo not shown) [Example 432] | 140 nM | 85% | 
O=C(O)C1C2CN(CCOc3ccc(Cc4ccccc4)cc3)CC21 (stereo not shown) [Example 435] | 225 nM |  | IC50 ([1]; human whole blood, A23187): 86 nM
O=C(O)C1CCN(CCOc2ccc(Cc3cccs3)cc2)CC1 [Example 437] | 113 nM |  | IC50 ([1]; human whole blood, A23187): 693 nM
N/C(=N\O)C1CCN(CC2Cc3cc(Cc4ccccc4)ccc3O2)CC1 (stereo not shown) [Example 446] | 35 nM | 70% | 
O=c1[nH]c(C2CCCN(CCOc3ccc(Cc4ccccc4)cc3)C2)no1 (stereo not shown) [Example 448] | 820 nM |  | IC50 [1, 6]: 825 nM
CC1CC(c2nnn[nH]2)CCN1CCOc1ccc(Cc2ccccc2)cc1 (stereo not shown) [Example 451] | 6 nM | 90% | 
O=C(CCl)NC1CCN(CCOc2ccc(Cc3ccccc3)cc2)C1 (stereo not shown) [Example 454] | 140 nM |  | IC50 ([1]; human whole blood, A23187): 610 nM
NC1CCN(CCOc2ccc(Cc3ccccc3)cc2)CC1 [Example 455] | 11 nM | 67% | 
c1ccc(Cc2ccc(OCCN3CC4CCC3C4)cc2)cc1 (stereo not shown) [Example 499] | 240 nM | 60% | 
c1ccc(Cc2ccc(OCCN3CC4CCC3CC4)cc2)cc1 [Example 500] | 140 nM | 53% | 

From patent US6506876B1, “LTA4 hydrolase inhibitor pharmaceutical compositions and methods of use” (G.D. Searle & Co., priority 1994, dated 2003)
